Experimental data: ChEMBL document CHEMBL3885881, “DrugMatrix”

Organism: Rattus norvegicus
Assay: DrugMatrix - Regimen: Daily Repeat
Format: toxicity, organism-based, Sprague-Dawley
Parameters: regimen Daily Repeat, gender Male, age 6-8 weeks
Conditions: in vivo, po, route oral GAVAGE, vehicle .5 % CMC; for ABSOLUTE BASOPHIL / ABSOLUTE EOSINOPHIL / ABSOLUTE LYMPHOCYTE / ABSOLUTE MONOCYTE / ABSOLUTE SEGMENTED NEUTROPHIL / BASOPHIL / EOSINOPHIL / ERYTHROCYTE COUNT / HEMATOCRIT / HEMOGLOBIN / LEUKOCYTE COUNT / LYMPHOCYTE / MEAN CORPUSCULAR HEMOGLOBIN / MEAN CORPUSCULAR HEMOGLOBIN CONCENTRATION / MEAN CORPUSCULAR VOLUME / MONOCYTE / NEUTROPHIL / NUCLEATED RED BLOOD CELLS / PLATELET COUNT: tissue Blood; for ALANINE AMINOTRANSFERASE / ALBUMIN / ALKALINE PHOSPHATASE / ASPARTATE AMINOTRANSFERASE / BLOOD UREA NITROGEN / CARBON DIOXIDE / CHLORIDE / CHOLESTEROL / CREATINE PHOSPHOKINASE / CREATININE / LACTATE DEHYDROGENASE / LIPASE / PHOSPHORUS / SODIUM / TOTAL BILIRUBIN / TOTAL PROTEIN / URIC ACID: tissue Plasma
[1] = 29 mg/kg, 72 h, dose level Low, time 3 day
[2] = 29 mg/kg, 120 h, dose level Low, time 5 day
[3] = 1169 mg/kg, 72 h, dose level High, time 3 day
[4] = 1169 mg/kg, 120 h, dose level High, time 5 day

Nc1nc(O)c2ncn(COC(CO)CO)c2n1 [GANCICLOVIR]
ABSOLUTE BASOPHIL [1]: 0 CELLS/uL
ABSOLUTE EOSINOPHIL [1]: 152 CELLS/uL
ABSOLUTE LYMPHOCYTE [1]: 12965 CELLS/uL
ABSOLUTE MONOCYTE [1]: 505.67 CELLS/uL
ABSOLUTE SEGMENTED NEUTROPHIL [1]: 1544 CELLS/uL
BASOPHIL [1]: 0%
EOSINOPHIL [1]: 1%
ERYTHROCYTE COUNT [1]: 5.64 x10E6/uL
HEMATOCRIT [1]: 35.17%
HEMOGLOBIN [1]: 13.17 G/DL
LEUKOCYTE COUNT [1]: 15.17 x10E3/uL
LYMPHOCYTE [1]: 85.67%
MEAN CORPUSCULAR HEMOGLOBIN [1]: 23.37 pg
MEAN CORPUSCULAR HEMOGLOBIN CONCENTRATION [1]: 37.47 G/DL
MEAN CORPUSCULAR VOLUME [1]: 62.37 fL
MONOCYTE [1]: 3.33%
NEUTROPHIL [1]: 10%
NUCLEATED RED BLOOD CELLS [1]: 0 /100WBC
PLATELET COUNT [1]: 1360 x10E3/uL
ALANINE AMINOTRANSFERASE [1]: 48 u/L
ALBUMIN [1]: 4.17 G/DL
ALKALINE PHOSPHATASE [1]: 319.67 u/L
ASPARTATE AMINOTRANSFERASE [1]: 96 u/L
BLOOD UREA NITROGEN [1]: 18 mg/dL
CARBON DIOXIDE [1]: 24 mmol/L
CHLORIDE [1]: 103 MEQ/L
CHOLESTEROL [1]: 67.67 mg/dL
CREATINE PHOSPHOKINASE [1]: 635.33 u/L
CREATININE [1]: 0.21 mg/dL
LACTATE DEHYDROGENASE [1]: 646.33 u/L
LIPASE [1]: 8.67 u/L
PHOSPHORUS [1]: 14.2 mg/dL
SODIUM [1]: 145.5 MEQ/L
TOTAL BILIRUBIN [1]: 0.2 mg/dL
TOTAL PROTEIN [1]: 5.9 G/DL
URIC ACID [1]: 2.23 mg/dL
ABSOLUTE BASOPHIL [2]: 0 CELLS/uL
ABSOLUTE EOSINOPHIL [2]: 86.67 CELLS/uL
ABSOLUTE LYMPHOCYTE [2]: 11979.33 CELLS/uL
ABSOLUTE MONOCYTE [2]: 137.33 CELLS/uL
ABSOLUTE SEGMENTED NEUTROPHIL [2]: 1530 CELLS/uL
BASOPHIL [2]: 0%
EOSINOPHIL [2]: 0.67%
ERYTHROCYTE COUNT [2]: 5.69 x10E6/uL
HEMATOCRIT [2]: 35.37%
HEMOGLOBIN [2]: 13.23 G/DL
LEUKOCYTE COUNT [2]: 13.73 x10E3/uL
LYMPHOCYTE [2]: 87%
MEAN CORPUSCULAR HEMOGLOBIN [2]: 23.27 pg
MEAN CORPUSCULAR HEMOGLOBIN CONCENTRATION [2]: 37.47 G/DL
MEAN CORPUSCULAR VOLUME [2]: 62.13 fL
MONOCYTE [2]: 1%
NEUTROPHIL [2]: 11.33%
NUCLEATED RED BLOOD CELLS [2]: 0 /100WBC
PLATELET COUNT [2]: 1168 x10E3/uL
ALANINE AMINOTRANSFERASE [2]: 47.67 u/L
ALBUMIN [2]: 4.2 G/DL
ALKALINE PHOSPHATASE [2]: 323 u/L
ASPARTATE AMINOTRANSFERASE [2]: 91.67 u/L
BLOOD UREA NITROGEN [2]: 19.33 mg/dL
CARBON DIOXIDE [2]: 25.33 mmol/L
CHLORIDE [2]: 106.33 MEQ/L
CHOLESTEROL [2]: 74.67 mg/dL
CREATINE PHOSPHOKINASE [2]: 428.33 u/L
CREATININE [2]: 0.15 mg/dL
LACTATE DEHYDROGENASE [2]: 720 u/L
LIPASE [2]: 8.67 u/L
PHOSPHORUS [2]: 11.4 mg/dL
SODIUM [2]: 145.9 MEQ/L
TOTAL BILIRUBIN [2]: 0.13 mg/dL
TOTAL PROTEIN [2]: 5.77 G/DL
URIC ACID [2]: 0.83 mg/dL
ABSOLUTE BASOPHIL [3]: 0 CELLS/uL
ABSOLUTE EOSINOPHIL [3]: 180.33 CELLS/uL
ABSOLUTE LYMPHOCYTE [3]: 12632.33 CELLS/uL
ABSOLUTE MONOCYTE [3]: 432 CELLS/uL
ABSOLUTE SEGMENTED NEUTROPHIL [3]: 1155.33 CELLS/uL
BASOPHIL [3]: 0%
EOSINOPHIL [3]: 1.67%
ERYTHROCYTE COUNT [3]: 5.52 x10E6/uL
HEMATOCRIT [3]: 33.9%
HEMOGLOBIN [3]: 12.9 G/DL
LEUKOCYTE COUNT [3]: 14.4 x10E3/uL
LYMPHOCYTE [3]: 87%
MEAN CORPUSCULAR HEMOGLOBIN [3]: 23.43 pg
MEAN CORPUSCULAR HEMOGLOBIN CONCENTRATION [3]: 38.07 G/DL
MEAN CORPUSCULAR VOLUME [3]: 61.57 fL
MONOCYTE [3]: 3%
NEUTROPHIL [3]: 8.33%
NUCLEATED RED BLOOD CELLS [3]: 0.33 /100WBC
PLATELET COUNT [3]: 1439 x10E3/uL
ALANINE AMINOTRANSFERASE [3]: 45.33 u/L
ALBUMIN [3]: 4.3 G/DL
ALKALINE PHOSPHATASE [3]: 313.33 u/L
ASPARTATE AMINOTRANSFERASE [3]: 76 u/L
BLOOD UREA NITROGEN [3]: 19 mg/dL
CARBON DIOXIDE [3]: 27.33 mmol/L
CHLORIDE [3]: 103.67 MEQ/L
CHOLESTEROL [3]: 79.67 mg/dL
CREATINE PHOSPHOKINASE [3]: 222.33 u/L
CREATININE [3]: 0.23 mg/dL
LACTATE DEHYDROGENASE [3]: 239 u/L
LIPASE [3]: 9 u/L
PHOSPHORUS [3]: 12.3 mg/dL
SODIUM [3]: 145.57 MEQ/L
TOTAL BILIRUBIN [3]: 0.2 mg/dL
TOTAL PROTEIN [3]: 5.93 G/DL
URIC ACID [3]: 1.27 mg/dL
ABSOLUTE BASOPHIL [4]: 0 CELLS/uL
ABSOLUTE EOSINOPHIL [4]: 164.33 CELLS/uL
ABSOLUTE LYMPHOCYTE [4]: 13318 CELLS/uL
ABSOLUTE MONOCYTE [4]: 365.67 CELLS/uL
ABSOLUTE SEGMENTED NEUTROPHIL [4]: 1652 CELLS/uL
BASOPHIL [4]: 0%
EOSINOPHIL [4]: 1%
ERYTHROCYTE COUNT [4]: 5.49 x10E6/uL
HEMATOCRIT [4]: 34.33%
HEMOGLOBIN [4]: 13.13 G/DL
LEUKOCYTE COUNT [4]: 15.5 x10E3/uL
LYMPHOCYTE [4]: 86%
MEAN CORPUSCULAR HEMOGLOBIN [4]: 23.93 pg
MEAN CORPUSCULAR HEMOGLOBIN CONCENTRATION [4]: 38.27 G/DL
MEAN CORPUSCULAR VOLUME [4]: 62.6 fL
MONOCYTE [4]: 2.33%
NEUTROPHIL [4]: 10.67%
NUCLEATED RED BLOOD CELLS [4]: 0.33 /100WBC
PLATELET COUNT [4]: 1216.67 x10E3/uL
ALANINE AMINOTRANSFERASE [4]: 42.33 u/L
ALBUMIN [4]: 4.2 G/DL
ALKALINE PHOSPHATASE [4]: 345.33 u/L
ASPARTATE AMINOTRANSFERASE [4]: 78.67 u/L
BLOOD UREA NITROGEN [4]: 19.67 mg/dL
CARBON DIOXIDE [4]: 29.33 mmol/L
CHLORIDE [4]: 102.33 MEQ/L
CHOLESTEROL [4]: 65.33 mg/dL
CREATINE PHOSPHOKINASE [4]: 220 u/L
CREATININE [4]: 0.18 mg/dL
LACTATE DEHYDROGENASE [4]: 181 u/L
LIPASE [4]: 8.67 u/L
PHOSPHORUS [4]: 11.73 mg/dL
SODIUM [4]: 145.77 MEQ/L
TOTAL BILIRUBIN [4]: 0.13 mg/dL
TOTAL PROTEIN [4]: 5.9 G/DL
URIC ACID [4]: 1.43 mg/dL
